# pIC50: −log10 of the molar value.
# Molecular target: T1, recombinant human 15-PGDH (Homo sapiens, UniProt P15428)
# T1 construct: purchased R&D Systems
# T1 sequence (P15428 1-266): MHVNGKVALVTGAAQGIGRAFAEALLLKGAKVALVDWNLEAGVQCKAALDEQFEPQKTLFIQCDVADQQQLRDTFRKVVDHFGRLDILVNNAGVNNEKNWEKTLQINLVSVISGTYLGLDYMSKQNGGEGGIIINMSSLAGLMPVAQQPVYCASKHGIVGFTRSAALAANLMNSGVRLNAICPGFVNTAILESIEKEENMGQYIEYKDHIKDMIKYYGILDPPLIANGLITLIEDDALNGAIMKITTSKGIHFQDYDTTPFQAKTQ
# Experiment: 15-PGDH enzyme inhibition test
# Assay type: biochemical
# Settings: 4 nM recombinant human 15-PGDH, 30 μM PGE2, 1 mM NAD+, 60 minutes after starting the reaction; read-out: IC50 Value
# Experimental: 15-PGDH Enzyme Inhibition Test
# A test compound and 4 nM recombinant human 15-PGDH (R&D Systems) were added, in 50 mM Tris-HCl (pH 8.0) containing 0.01% TWEEN 20 (Sigma) and 0.01% bovine gamma globulin (Sigma), to a 384-well Flat Bottom Black plate (Corning, 3820), and the resultant was allowed to stand still at room temperature for 12 minutes, and 30 μM PGE2 (Cayman Chemical) and 1 mM NAD+ (Sigma) were added thereto to start the reaction. 60 minutes after starting the reaction, measurement was performed using Synergy 2 (BioTeck) at an excitation wavelength of 340 nm and a fluorescence wavelength of 440 nm. Assuming that a fluorescence signal obtained with an assay buffer added instead of the test compound and NAD+ was 100% and that a signal obtained with NAD+ added was 0%, a concentration corresponding to 50% inhibition plotted on a concentration-reaction curve of the test compound was defined as an IC50 value. Incidentally, in the following tables, an IC50 value smaller than 10 nM was shown as +++, an IC50 value equal to or larger than 10 nM and smaller than 100 nM was shown as ++, and an IC50 value equal to or larger than 100 nM was shown as +.
row,Structure (SMILES),pIC50
1,CCn1nc2cc(N3CCCc4cc(C(=O)N5CCC[C@@H](CF)C5)cnc43)ccn2c1=O [Example 1-120],> 8.00
2,O=C(c1cnc2c(c1)CCCN2c1ccccc1)N1CCCCC1 [Example 1-199],7.00 to 8.00
3,CN1Cc2cc(N3CCCc4cc(C(=O)N5CCCCC5)cnc43)ncc2C1=O [Example 1-56],7.00 to 8.00
4,COc1cc(N2CCOc3cc(C(=O)N4CCCCC4)cnc32)ccc1S(C)(=O)=O [Example 1-255],7.00 to 8.00
5,CN1Cc2cc(N3CCOc4cc(C(=O)C5CCC(F)(F)CC5)cnc43)ccc2C1=O [Example 1-133],> 8.00
6,O=C(O)c1ccc(N2CCC[S+]([O-])c3cc(C(=O)N4CCCCC4)ccc32)cc1 (centres unmarked) [Example 2-19],< 7.00
7,CCCCn1nc2cc(N3CCCc4cc(C(=O)N5CCCCC5)cnc43)ccn2c1=O [Example 1-203],> 8.00
8,O=C(O)c1ccc(N2CCCSc3cc(C(=O)N4CCCCC4)ccc32)cc1 [Example 2-18],> 8.00
9,O=C(c1cnc2c(c1)OCCN2c1ccn2c(=O)n(CC3COC3)nc2c1)N1CCCCC1 [Example 1-36],> 8.00
10,O=C(c1cnc2c(c1)OCCN2c1ccc2c(=O)[nH]ccc2c1)N1CCCCC1 [Example 1-219],> 8.00
11,O=C(O)c1ccccc1N1CCOc2cc(C(=O)N3CCCCC3)cnc21 [Example 2-36],< 7.00
12,Cn1ccc2cc(N3CCCc4cc(C(=O)N5CCCCC5)cnc43)ccc2c1=O [Example 1-174],> 8.00
13,COCCN1Cc2cc(N3CCOc4cc(C(=O)N5CCC(F)(F)CC5)cnc43)ccc2C1=O [Example 1-49],> 8.00
14,Cn1nnc(-c2ccc(N3CCOc4cc(C(=O)N5CCCCC5)cnc43)cc2)n1 [Example 1-252],> 8.00
15,O=C(c1cnc2c(c1)CCCN2c1ccc2c(c1)CN(C1COC1)C2=O)N1CCC(F)(F)CC1 [Example 1-178],> 8.00
16,CCOCn1nc2cc(N3CCCc4cc(C(=O)N5CCC(F)(F)CC5)cnc43)ccn2c1=O [Example 1-77],> 8.00
17,CN1Cc2cc(N3CCCc4cc(C(=O)N5CCCCC5)cnc43)cnc2C1=O [Example 1-67],> 8.00
18,Cn1nc2cc(N3CCOCc4cc(C(=O)N5CCCCC5)cnc43)ccn2c1=O [Example 1-108],7.00 to 8.00
19,CCOCCn1nc2cc(N3CCCc4cc(C(=O)N5CCC(F)(F)CC5)cnc43)ccn2c1=O [Example 1-79],> 8.00
20,COCCN1Cc2cc(N3CCCc4cc(C(=O)N5CCCCC5)cnc43)ccc2C1=O [Example 1-64],> 8.00
21,O=C(c1cnc2c(c1)CCCN2c1ccn2c(=O)[nH]nc2c1)N1CCCCC1 [Example 1-171],> 8.00
22,COc1cc(N2CCOc3cc(C(=O)N4CCC(F)(F)CC4)ccc32)ccc1C(N)=O [Example 5-2],> 8.00
23,C[C@H]1COc2cc(C(=O)N3CCCCC3)ccc2N(c2ccc(C(=O)O)cc2)C1 [Example 2-10],> 8.00
24,CCOCn1nc2cc(N3CCCc4cc(C(=O)N5CCC[C@H](CF)C5)cnc43)ccn2c1=O [Example 1-115],> 8.00
25,CN1Cc2cc(N3CCOc4cc(C(=O)N5CCC(F)(F)CC5)cnc43)ncc2C1=O [Example 1-46],7.00 to 8.00
26,COc1ccc(N2CCOc3cc(C(=O)N4CCCCC4)cnc32)cc1 [Example 1-245],7.00 to 8.00

# Second part, the compound after the results:
row,pIC50,Structure (SMILES)
1,> 8.00,C[C@H]1CCCCN1C(=O)c1cnc2c(c1)OCCN2c1ccn2c(=O)n(C)nc2c1 [Example 8-28]
2,7.00 to 8.00,CN1CCN(C(=O)c2cnc3c(c2)CCCN3c2ccn3c(=O)n(C)nc3c2)CC1 [Example 8-127]
3,> 8.00,Cn1nc2cc(N3CCOc4cc(C(=O)N5CCC[C@@H](O)C5)cnc43)ccn2c1=O [Example 8-33]
4,7.00 to 8.00,Cn1nc2cc(N3CCOc4cc(C(=O)N5CCCC6(C5)CC(F)(F)C6)cnc43)ccn2c1=O [Example 8-95]
5,> 8.00,O=C(c1cnc2c(c1)OCCN2c1ccn2c(=O)n(Cc3ccc(F)c(F)c3)nc2c1)N1CCC(F)(F)CC1 [Example 27-6]
6,> 8.00,Cn1nc2cc(N3CCCc4cc(C(=O)N5CCc6ccccc6C5)cnc43)ccn2c1=O [Example 8-130]
7,> 8.00,Cn1nc2cc(N3CCOc4cc(C(=O)N5Cc6ccccc6C5)cnc43)ccn2c1=O [Example 8-103]
8,> 8.00,"O=C(O)c1ccc(N2CCOc3c2ccc(C(=O)N2CCCCC2)c3C2CC2)cc1 [Example 9-1, 4-(8-Cyclopropyl-7-(piperidine-1-carbonyl)-2,3-dihydro-4H-benzo[b][1,4]oxazin-4-yl)benzoic Acid]"
9,> 8.00,Cn1nc2cc(N3CCCc4cc(C(=O)N5CCC5)cnc43)ccn2c1=O [Example 8-122]
10,> 8.00,CCn1nc2cc(N3CCCc4cc(C(=O)N5CC=CCC5)cnc43)ccn2c1=O [Example 8-154]
11,> 8.00,Cn1nc2cc(N3CCOc4cc(C(=O)N5[C@@H]6CCC[C@H]5CC6)cnc43)ccn2c1=O [Example 8-56]
12,> 8.00,Cn1nc2cc(N3CCOc4cc(C(=O)N5CCC[C@H](C(F)(F)F)C5)cnc43)ccn2c1=O [Example 8-116]
13,> 8.00,"O=C(O)c1ccc(N2CCOc3cc(C(=O)N4CCCCC4)cnc32)cc1F [Example 20-1, 2-Fluoro-4-(7-(piperidine-1-carbonyl)-2,3-dihydro-4H-pyrido[3,2-b][1,4]oxazin-4-yl)benzoic Acid]"
14,> 8.00,C[C@H]1CCCCN1C(=O)c1cnc2c(c1)OCCN2c1ccc2c(c1)CN(C)C2=O [Example 8-196]
15,> 8.00,"CNC(=O)c1ccc(N2CCOc3cc(C(=O)N4CCC(F)(F)CC4)ccc32)cc1OC [Example 6-1, 4-(7-(4,4-Difluoropiperidine-1-carbonyl)-2,3-dihydro-4H-benzo[b][1,4]oxazin-4-yl)-2-methoxy-N-methylbenzamide]"
16,< 7.00,CC(=O)N1CCN(C(=O)c2cnc3c(c2)CCCN3c2ccn3c(=O)n(C)nc3c2)CC1 [Example 8-128]
17,> 8.00,COCn1nc2cc(N3CCCc4cc(C(=O)N5CC[C@@H](C)C5)cnc43)ccn2c1=O [Example 8-121]
18,> 8.00,CN1Cc2cc(N3CCOc4cc(C(=O)N5CCC[C@H](F)C5)cnc43)ccc2C1=O [Example 8-200]
19,7.00 to 8.00,Cn1nc2cc(N3CCOc4cc(C(=O)N5CCCC6(COC6)C5)cnc43)ccn2c1=O [Example 8-52]
20,7.00 to 8.00,Cn1nc2cc(N3CCOc4cc(C(=O)N5CCC(C#N)CC5)cnc43)ccn2c1=O [Example 8-183]

row,pIC50,Structure (SMILES)
1,> 8.00,CN1Cc2cc(N3CCOc4cc(C(=O)N5CCC(F)CC5)cnc43)ccc2C1=O [Example 8-202]
2,> 8.00,CCN1Cc2cc(N3CCCc4cc(C(=O)N5CCC(F)(F)C(C)C5)cnc43)ccc2C1=O (centres unmarked) [Example 8-82]
3,> 8.00,NC(=O)c1ccc(N2CCOc3cc(C(=O)N4CCCCC4)ccc32)nc1 [Example 6-2]
4,< 7.00,CCn1nc2cc(N3CCOc4cc(C(=O)N5CCN(C(C)=O)CC5)cnc43)ccn2c1=O [Example 8-219]
5,> 8.00,Cn1nc2cc(N3CCOc4cc(C(=O)N5CCC[C@H](F)C5)cnc43)ccn2c1=O [Example 8-27]
6,7.00 to 8.00,Cn1nc2cc(N3CCOc4cc(C(=O)N5CCCC5(C)C)cnc43)ccn2c1=O [Example 8-173]
7,> 8.00,CN1Cc2cc(N3CCOc4cc(C(=O)N5CCC[C@@H](F)C5)cnc43)ccc2C1=O [Example 8-199]
8,> 8.00,CCOc1noc2cc(N3CCOc4cc(C(=O)N5CCCCC5)cnc43)ccc12 [Example 8-215]
9,> 8.00,O=C1NCc2cc(N3CCCc4cc(C(=O)N5CCC(F)(F)CC5)cnc43)ccc21 [Example 14-5]
10,> 8.00,Cn1nc2cc(N3CCOc4cc(C(=O)N5CCCC6CC65)cnc43)ccn2c1=O (centres unmarked) [Example 8-54]
11,< 7.00,Cn1nc2cc(N3CCN(c4cccnc4)c4cc(C(=O)N5CCC(F)(F)CC5)cnc43)ccn2c1=O [Example 30-5]
12,> 8.00,Cn1nc2cc(N3CCCc4cc(C(=O)N5CCCC(F)(F)C5)cnc43)ccn2c1=O [Example 8-139]
13,> 8.00,CC(=O)N1CCN(c2ccn3c(=O)n(C)nc3c2)c2ncc(C(=O)N3CCCCC3)cc21 [Example 29-3]
14,> 8.00,Cn1nc2cc(N3CCCOc4cc(C(=O)N5CCC[C@@H](F)C5)cnc43)ccn2c1=O [Example 8-62]
15,> 8.00,Cn1nc2cc(N3CCOc4cc(C(=O)N5CC6CC6C5)cnc43)ccn2c1=O (centres unmarked) [Example 8-99]
16,< 7.00,"Cn1nc2cc(N3CCOc4cc(C(=O)N5CCC[C@H]5C(=O)O)cnc43)ccn2c1=O [Example 35-1, (4-(2-Methyl-3-oxo-2,3-dihydro-[1,2,4]triazolo[4,3-a]pyridin-7-yl)-3,4-dihydro-2H-pyrido[3,2-b][1,4]oxazine-7-carbonyl)-L-proline]"
17,> 8.00,COC(=O)C1CN(C(=O)c2cnc3c(c2)OCCN3c2ccn3c(=O)n(C)nc3c2)C1 [Example 8-37]
18,> 8.00,CCn1nc2cc(N3CCOc4cc(C(=O)N5CCC(F)(F)CC5)cnc43)ccn2c1=O [Example 8-211]
19,> 8.00,Cn1nc2cc(N3CCOc4cc(C(=O)N5CCC(F)(F)CC5)cnc43)ccn2c1=O [Example 8-26]

# — US12577217B2, “15-PGDH inhibitor” (KYORIN Pharmaceutical Co., Ltd., priority 2019, dated 2026)
